What follows are compounds tested on HCT116 colorectal cancer cells (assay: Cisplatin sensitization assay (96 h MTS cell viability)). Conditions: Cisplatin sensitization value.
Format: cell-based
Method in brief: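 HCT116 cells were dosed simultaneously with compound and cisplatin as a full matrix of 2-fold serial dilutions from 10 μM top final concentration. Incubation was 96 h at 37° C., 5% CO2, followed by 1 h with MTS reagent for the viability read-out. Sensitization values were binned into +++, ++ and + categories.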
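Note: compound concentration needed to lower the IC50 of Cisplatin alone by a set fold.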

Row | SMILES | Cisplatin Sensitization Assay
1 | C[N+]1([O-])CCN(C(=O)C2CCN(c3c(F)cncc3NC(=O)c3c(N)nn4cc(F)cnc34)CC2)CC1 [I-G-95, 4-(1-(3-(2-amino-6-fluoropyrazolo[1,5-a]pyrimidine-3-carboxamido)-5-fluoropyridin-4-yl)piperidine-4-carbonyl)-1-methylpiperazine 1-oxide] | +++ (Compounds with a Cisplatin sensitization value of <0.02 μM are marked with “+++.”)
2 | CN1CC(N2CCN(C(=O)C3CCN(c4c(F)cncc4NC(=O)c4c(N)nn5cc(F)cnc45)CC3)CC2)C1 [I-G-96, 2-amino-6-fluoro-N-(5-fluoro-4-(4-(4-(1-methylazetidin-3-yl)piperazine-1-carbonyl)piperidin-1-yl)pyridin-3-yl)pyrazolo[1,5-a]pyrimidine-3-carboxamide] | +++ (Compounds with a Cisplatin sensitization value of <0.02 μM are marked with “+++.”)
3 | COCC1CN(C(=O)C2CCN(c3c(F)cncc3NC(=O)c3c(N)nn4cc(F)cnc34)CC2)C1 [I-G-98, 2-amino-6-fluoro-N-(5-fluoro-4-(4-(3-(methoxymethyl)azetidine-1-carbonyl)piperidin-1-yl)pyridin-3-yl)pyrazolo[1,5-a]pyrimidine-3-carboxamide] | +++ (Compounds with a Cisplatin sensitization value of <0.02 μM are marked with “+++.”)
4 | CO[C@H]1CCN(C(=O)C2CCN(c3c(F)cncc3NC(=O)c3c(N)nn4cc(F)cnc34)CC2)C1 [I-G-99, (S)-2-amino-6-fluoro-N-(5-fluoro-4-(4-(3-methoxypyrrolidine-1-carbonyl)piperidin-1-yl)pyridin-3-yl)pyrazolo[1,5-a]pyrimidine-3-carboxamide] | +++ (Compounds with a Cisplatin sensitization value of <0.02 μM are marked with “+++.”)
5 | Nc1nn2cc(F)cnc2c1C(=O)Nc1cnccc1N1CCN(C2COC2)CC1 [I-N-1, 2-amino-6-fluoro-N-(4-(4-(oxetan-3-yl)piperazin-1-yl)pyridin-3-yl)pyrazolo[1,5-a]pyrimidine-3-carboxamide] | ++ (Compounds with a Cisplatin sensitization value >0.02 μM but <0.2 μM are marked with “++.”)
6 | N#CCc1cnc2c(C(=O)Nc3cnccc3N3CCC(N)CC3)c(N)nn2c1 [I-N-2, 2-amino-N-(4-(4-aminopiperidin-1-yl)pyridin-3-yl)-6-(cyanomethyl)pyrazolo[1,5-a]pyrimidine-3-carboxamide] | +++ (Compounds with a Cisplatin sensitization value of <0.02 μM are marked with “+++.”)
7 | CN1CCN(c2ccncc2NC(=O)c2c(N)nn3cc(F)cnc23)CC1 [I-N-3, 2-amino-6-fluoro-N-(4-(4-methylpiperazin-1-yl)pyridin-3-yl)pyrazolo[1,5-a]pyrimidine-3-carboxamide] | +++ (Compounds with a Cisplatin sensitization value of <0.02 μM are marked with “+++.”)
8 | CC(C)N1CCN(c2ccncc2NC(=O)c2c(N)nn3cc(F)cnc23)CC1 [I-N-4, 2-amino-6-fluoro-N-(4-(4-isopropylpiperazin-1-yl)pyridin-3-yl)pyrazolo[1,5-a]pyrimidine-3-carboxamide] | +++ (Compounds with a Cisplatin sensitization value of <0.02 μM are marked with “+++.”)
9 | CN1CCN(c2c(NC(=O)c3c(N)nn4cc(F)cnc34)cncc2C2CC2)CC1 [I-N-5, 2-amino-N-(5-cyclopropyl-4-(4-methylpiperazin-1-yl)pyridin-3-yl)-6-fluoropyrazolo[1,5-a]pyrimidine-3-carboxamide] | ++ (Compounds with a Cisplatin sensitization value >0.02 μM but <0.2 μM are marked with “++.”)
10 | Nc1nn2cc(F)cnc2c1C(=O)Nc1cnccc1-n1ccnc1 [I-N-7, N-(4-(1H-imidazol-1-yl)pyridin-3-yl)-2-amino-6-fluoropyrazolo[1,5-a]pyrimidine-3-carboxamide] | ++ (Compounds with a Cisplatin sensitization value >0.02 μM but <0.2 μM are marked with “++.”)
11 | CNCCc1cnn(-c2ccncc2NC(=O)c2c(N)nn3cc(F)cnc23)c1 [I-N-8, 2-amino-6-fluoro-N-(4-(4-(2-(methylamino)ethyl)-1H-pyrazol-1-yl)pyridin-3-yl)pyrazolo[1,5-a]pyrimidine-3-carboxamide] | + (Compounds with a Cisplatin sensitization value >0.2 μM but <5 μM are marked with “+.”)
12 | CN(C)CCc1cnn(-c2ccncc2NC(=O)c2c(N)nn3cc(F)cnc23)c1 [I-N-9, 2-amino-N-(4-(4-(2-(dimethylamino)ethyl)-1H-pyrazol-1-yl)pyridin-3-yl)-6-fluoropyrazolo[1,5-a]pyrimidine-3-carboxamide] | + (Compounds with a Cisplatin sensitization value >0.2 μM but <5 μM are marked with “+.”)
13 | Nc1nn2cc(F)cnc2c1C(=O)Nc1cnccc1N1CCN([C@@H]2CCOC2)CC1 [I-N-10, (R)-2-amino-6-fluoro-N-(4-(4-(tetrahydrofuran-3-yl)piperazin-1-yl)pyridin-3-yl)pyrazolo[1,5-a]pyrimidine-3-carboxamide] | ++ (Compounds with a Cisplatin sensitization value >0.02 μM but <0.2 μM are marked with “++.”)
14 | Nc1nn2cc(F)cnc2c1C(=O)Nc1cnccc1N1CCN(C2CCOCC2)CC1 [I-N-11, 2-amino-6-fluoro-N-(4-(4-(tetrahydro-2H-pyran-4-yl)piperazin-1-yl)pyridin-3-yl)pyrazolo[1,5-a]pyrimidine-3-carboxamide] | ++ (Compounds with a Cisplatin sensitization value >0.02 μM but <0.2 μM are marked with “++.”)
15 | Nc1nn2cc(F)cnc2c1C(=O)Nc1cnccc1N1CCN([C@H]2CCOC2)CC1 [I-N-12, (S)-2-amino-6-fluoro-N-(4-(4-(tetrahydrofuran-3-yl)piperazin-1-yl)pyridin-3-yl)pyrazolo[1,5-a]pyrimidine-3-carboxamide] | +++ (Compounds with a Cisplatin sensitization value of <0.02 μM are marked with “+++.”)
16 | Nc1nn2cc(F)cnc2c1C(=O)Nc1cncc(F)c1N1CCN(C2COC2)CC1 [I-N-13, 2-amino-6-fluoro-N-(5-fluoro-4-(4-(oxetan-3-yl)piperazin-1-yl)pyridin-3-yl)pyrazolo[1,5-a]pyrimidine-3-carboxamide] | +++ (Compounds with a Cisplatin sensitization value of <0.02 μM are marked with “+++.”)
17 | CN1CCN(c2c(F)cncc2NC(=O)c2c(N)nn3cc(Cl)cnc23)CC1 [I-N-14, 2-amino-6-chloro-N-(5-fluoro-4-(4-methylpiperazin-1-yl)pyridin-3-yl)pyrazolo[1,5-a]pyrimidine-3-carboxamide] | +++ (Compounds with a Cisplatin sensitization value of <0.02 μM are marked with “+++.”)
18 | CN1CCN(c2c(F)cncc2NC(=O)c2c(N)nn3cc(F)cnc23)CC1 [I-N-15, 2-amino-6-fluoro-N-(5-fluoro-4-(4-methylpiperazin-1-yl)pyridin-3-yl)pyrazolo[1,5-a]pyrimidine-3-carboxamide] | +++ (Compounds with a Cisplatin sensitization value of <0.02 μM are marked with “+++.”)
19 | Cc1cncc(NC(=O)c2c(N)nn3cc(F)cnc23)c1N1CCN(C2COC2)CC1 [I-N-16, 2-amino-6-fluoro-N-(5-methyl-4-(4-(oxetan-3-yl)piperazin-1-yl)pyridin-3-yl)pyrazolo[1,5-a]pyrimidine-3-carboxamide] | +++ (Compounds with a Cisplatin sensitization value of <0.02 μM are marked with “+++.”)
20 | CCN1CCN(c2ccncc2NC(=O)c2c(N)nn3cc(F)cnc23)CC1 [I-N-17, 2-amino-N-(4-(4-ethylpiperazin-1-yl)pyridin-3-yl)-6-fluoropyrazolo[1,5-a]pyrimidine-3-carboxamide] | +++ (Compounds with a Cisplatin sensitization value of <0.02 μM are marked with “+++.”)
21 | Nc1nn2cc(F)cnc2c1C(=O)Nc1cnccc1N1CCN2CCC1CC2 [I-N-18, N-(4-(1,4-diazabicyclo[3.2.2]nonan-4-yl)pyridin-3-yl)-2-amino-6-fluoropyrazolo[1,5-a]pyrimidine-3-carboxamide] | ++ (Compounds with a Cisplatin sensitization value >0.02 μM but <0.2 μM are marked with “++.”)
22 | Nc1nn2cc(F)cnc2c1C(=O)Nc1cnccc1N1CCN(CC(F)(F)F)CC1 [I-N-20, 2-amino-6-fluoro-N-(4-(4-(2,2,2-trifluoroethyl)piperazin-1-yl)pyridin-3-yl)pyrazolo[1,5-a]pyrimidine-3-carboxamide] | +++ (Compounds with a Cisplatin sensitization value of <0.02 μM are marked with “+++.”)
23 | Nc1nn2cc(F)cnc2c1C(=O)Nc1cnccc1N1CCN2CCC[C@H]2C1 [I-N-21, (S)-2-amino-6-fluoro-N-(4-(hexahydropyrrolo[1,2-a]pyrazin-2(1H)-yl)pyridin-3-yl)pyrazolo[1,5-a]pyrimidine-3-carboxamide] | +++ (Compounds with a Cisplatin sensitization value of <0.02 μM are marked with “+++.”)
24 | C[C@H]1CN(C2COC2)CCN1c1ccncc1NC(=O)c1c(N)nn2cc(F)cnc12 [I-N-24, (S)-2-amino-6-fluoro-N-(4-(2-methyl-4-(oxetan-3-yl)piperazin-1-yl)pyridin-3-yl)pyrazolo[1,5-a]pyrimidine-3-carboxamide] | +++ (Compounds with a Cisplatin sensitization value of <0.02 μM are marked with “+++.”)
25 | Nc1nn2cc(F)cnc2c1C(=O)Nc1cnccc1-n1cccn1 [I-N-26, N-(4-(1H-pyrazol-1-yl)pyridin-3-yl)-2-amino-6-fluoropyrazolo[1,5-a]pyrimidine-3-carboxamide] | + (Compounds with a Cisplatin sensitization value >0.2 μM but <5 μM are marked with “+.”)
26 | Nc1nn2cc(F)cnc2c1C(=O)Nc1cnccc1-n1cnc(C(F)(F)F)c1 [I-N-27, 2-amino-6-fluoro-N-(4-(4-(trifluoromethyl)-1H-imidazol-1-yl)pyridin-3-yl)pyrazolo[1,5-a]pyrimidine-3-carboxamide] | ++ (Compounds with a Cisplatin sensitization value >0.02 μM but <0.2 μM are marked with “++.”)
27 | Cc1nccn1-c1ccncc1NC(=O)c1c(N)nn2cc(F)cnc12 [I-N-28, 2-amino-6-fluoro-N-(4-(2-methyl-1H-imidazol-1-yl)pyridin-3-yl)pyrazolo[1,5-a]pyrimidine-3-carboxamide] | +++ (Compounds with a Cisplatin sensitization value of <0.02 μM are marked with “+++.”)

— patent publication US11117900B2 (Vertex Pharmaceuticals Incorporated, priority 2012, dated 2021)
